We go through 15 compounds from article PMC6344423, “Opposing Actions of Adrenocorticotropic Hormone and Glucocorticoids on UCP1-Mediated Respiration in Brown Adipocytes” (Frontiers in Physiology, 2019).

For experiment [1], the system named is Ucp1 gene expression in primary brown adipocytes of Ucp1^ki/ki mice. Description: Luciferase assay, FLUC activity as surrogate for Ucp1 expression. Type of experiment: cell-based, mouse. The following applies: overnight stimulation, normalized to total protein content, n = 3, Figure 1D. The protocol:
After overnight stimulation of primary brown adipocytes of Ucp1^ki/ki mice luciferase activity was assayed using a commercial kit system (Luciferase Assay System Freezer Pack E4030, Promega GmbH). Primary cells were lysed in 1x reporter lysis buffer by shaking for 20 min at room temperature. 10 μl lysate was mixed with 50 μl luciferase assay substrate solution, and the mixture was measured by FB12 in a luminometer (Single Tube Luminometer, Titertek-Berthold GmbH). Bioluminescence readouts were normalized to total protein content.
We then measured FLUC activity in primary brown adipocytes from Ucp1^ki/ki reporter gene mice to determine the effect of the GsPCR ligands on Ucp1 gene expression in response to overnight stimulation. As the expression of Fluc in these cells is driven by Ucp1promoter, FLUC activity served as a surrogate for Ucp1 expression.

The subject of another experiment is primary brown adipocytes. Description: Microplate-based respirometry (XF96), UCP1-mediated uncoupled respiration. It is filed as cell-based, mouse. The following applies: for Stimulated respiration (fold increase of basal leak), ACTH heptapeptide fragments: fragments 1 μM, n = 4, Figures 4A,B,D,E; for Stimulated respiration (UCP1-dependent uncoupled respiration) as fold increase of basal leak respiration, GsPCR ligand screen: primary brown adipocytes (129S6 mice), acute addition after oligomycin 5 μM, medium with 1–2% fatty acid free BSA, 37°C, n = 5, Figures 1B,C. The protocol: Oxygen consumption of primary brown adipocytes was measured at 37°C using microplate-based respirometry (XF96 extracellular flux analyzer, Seahorse Bioscience) as described previously ([Li et al., 2014b]) following the subsequent protocol at day 7 of differentiation. Prior to the respiration measurement, primary cells were washed with warmed, unbuffered assay medium (DMEM basal medium supplemented with 25 mM glucose, 31 mM NaCl, 2 mM GlutaMax and 15 mg/l phenol red, pH 7.4) (basal assay medium). Subsequent to the medium replacement with basal assay medium containing 1–2% essentially fatty acid free bovine serum albumin (BSA), cells were incubated at 37°C in a CO2-free incubator for 1 h. Assay reagents were loaded into the drug injections ports of the sensor cartridges at 10X in basal assay medium (no BSA). After assessment of basal oxygen consumption in untreated cells oligomycin (5 μM) was injected to inhibit coupled respiration and to determine basal leak respiration. Next, effector was added to investigate UCP1-dependant uncoupled respiration. By the addition of FCCP (1 μM) maximal respiratory capacity was determined. Lastly, non-mitochondrial oxygen consumption was assessed by blocking mitochondrial respiration with antimycin A (5 μM). For some experiments, cells were pretreated for 1 h with 50 μM H89 (PKA inhibitor), 1–100 μM propranolol (β-adrenergic receptor antagonist), 40 μM Atglistatin (ATGL inhibitor) and 40 μM Hi76-0079 (HSL inhibitor) 1 h prior to the measurement. Oxygen consumption rates were automatically calculated by the Seahorse XF-96 software. Each experiment was repeated at least three times with similar results and five to eight replicate wells for every condition in each independent experiment. Results are predominately expressed as stimulated respiration which is calculated as fold increase of basal leak.
In our first screen, we tested whether these GsPCR ligands can activate oxygen consumption acutely in brown adipocytes. UCP1-mediated uncoupled respiration was quantified in cultured adherent intact primary brown adipocytes, according to a protocol established in our lab ([Li et al., 2014b]). After recording basal respiration and the fraction of coupled and uncoupled respiration, UCP1-dependent respiration was measured. Finally, maximal respiratory capacity and non-mitochondrial oxygen consumption were assessed by adding the uncoupling agent carbonyl cyanide 4-(trifluoromethoxy) phenylhydrazone (FCCP) and antimycin A was added to block the electron transport chain, respectively. All respiration assays were performed in the presence of BSA to buffer free fatty acid (FFA) levels in the respiration medium.

The subject of experiment [2] is cytosolic cAMP in primary brown adipocytes. Description: Quantification of cellular cAMP (cAMP-Glo Assay). Type of experiment: cell-based, mouse. Here is the method: Changes in cytosolic cAMP concentrations were determined in primary brown adipocytes in response to ACTH- or isoproterenol stimulation using cAMP-Glo Assay (Promega) following the manufacturer’s instructions.

The test system of experiment [3] is Ucp1 mRNA in primary brown adipocytes. Description: Ucp1 gene expression analysis (qRT-PCR), brown adipocytes. It is filed as cell-based, mouse. The following applies: for Ucp1 mRNA expression, ACTH heptapeptide fragments: normalized to Gtf2b, n = 4, Figures 4C,F. Here is the method: (§1) Total RNA was isolated using Trisure (Bioline) and purified with SV total RNA Isolation System (Promega). Reverse transcriptase reactions were performed using SensiFAST cDNA Synthesis Kit (Bioline). Quantitative real-time PCR (qRT-PCR) was performed with SYBR green fluorescent dye in 384-well format using LightCycler 480 (Roche). General Transcription Factor IIB (Gtf2b) served as an internal control. To be able to calculate relative gene expression levels of samples, standard reactions containing serial diluted pooled cDNA of all samples (Pure, 1:2, 1:4, 1:8, 1:16, 1:32 and 1:64) as a template were used to establish a standard curve. The RNA abundance of Ucp1 gene was normalized to the housekeeping gene Gtf2b. The following primers were used: […]

Experiment [4] relates to β3-adrenergic receptor (Adrb3) expression. Description: Adrb3 gene expression (qRT-PCR) in primary brown adipocytes. The following applies: 5 μM Dexa, 0–4 h, n = 4. It is filed as cell-based, mouse. The protocol: as §1
In experiment [5] the test system is melanocortin 2 receptor (Mc2r) expression. Description: Mc2r gene expression (qRT-PCR) in primary brown adipocytes. It is filed as cell-based, mouse. The following applies: 5 μM Dexa, 0–4 h, n = 4. Here is the method: as §1
For orientation: Real-time PCR tracks product formation cycle by cycle.

The test system of experiment [6] is Ucp1 mRNA and UCP1 protein. Also noted: method as in Soumano et al., 2000; van den Beukel et al., 2014. The following applies: ref Soumano et al., 2000; van den Beukel et al., 2014; cited from earlier work. From the text: To address the physiological role of ACTH in brown fat thermogenesis we analyzed the expression of its receptor in BAT of mice in response to cold exposure. […] Basically, ACTH triggers the release of glucocorticoids from the cortex of the adrenal gland. Circulating glucocorticoids exert negative feedback control on the […] ...

Another experiment has as its system release of FFAs. The following applies: lipolysis as criterion of potency; ref Draper et al., 1973; cited from earlier work. From the text:
The heptapeptide sequence, Met-Glu-His-Phe-Arg-Trp-Gly, is common to all the adrenocorticotropic (ACTH), melanotropic (MSH), and lipotropic (LPH) hormones.

[7] abbreviates: 5 μM Dexa pretreatment, n = 4, Figure 5G.

Ends that are not written are not given here.

As for `CCNC(=O)[C@H]1O[C@@H](n2cnc3c(N)nc(NCCc4ccc(CCC(=O)O)cc4)nc32)[C@H](O)[C@@H]1O` [CGS21680], the “FLUC (luciferase) activity as surrogate for Ucp1 expression” value (“FLUC (luciferase) activity as surrogate” for short) in experiment [1] was “no effect on FLUC”.
Take `C[C@@H]1C[C@H]2[C@@H]3CCC4=CC(=O)C=C[C@]4(C)[C@@]3(F)[C@@H](O)C[C@]2(C)[C@@]1(O)C(=O)CO` [Dexa, dexamethasone]: the “Effect of Dexa pretreatment on ACTH-induced respiration” value in the experiment with primary brown adipocytes (5 μM Dexa, 0–4 h, n = 4, Figure 5C) was “unaffected”. Moreover, the “Effect of Dexa pretreatment on ISO-stimulated respiration” value with primary brown adipocytes (5 μM Dexa, 0–4 h, with increasing exposure time, n = 4, Figure 5C) is listed as “attenuated ISO-stimulated respiration”. Also, the “Effect of Dexa on respiration, one-hour pre-treatment or acute stimulation” value with primary brown adipocytes (5 μM Dexa, n = 4, Figure 5B) was “had no effect on respiration”. The “Effect of DEXA treatment on thermogenic response, 1 h” value in the experiment with primary brown adipocytes (DEXA treatment for 1 h) was “had no effect”. In the experiment on primary brown adipocytes (extended DEXA treatment for 4 h, compared with 2 h), the “Effect of DEXA treatment on thermogenic response to ISO, 4 h” value is given as “more pronounced”. Besides, the “Effect of DEXA treatment on thermogenic response to ISO, 2 h” value with primary brown adipocytes (two hours of DEXA treatment) was “significant downregulation of the thermogenic response to ISO”. In experiment [2] (setting [7]), the “Effect of Dexa on ACTH induced rise in cellular cAMP” value is given as “no such effect was observed for ACTH” and the “Effect of Dexa on ISO induced rise in cellular cAMP” value is listed as “attenuated the ISO induced rise in cellular cAMP levels”. Besides, in experiment [3] (4-h treatment, 5 μM Dexa, n = 4), the “Effect of Dexa on Ucp1 expression” value is “no significant effect on Ucp1 expression”. Further, the “Effect of Dexa on expression of the β3-adrenergic receptor” value in experiment [4] is listed as “not a consequence of reduced or increased expression”. Also, the “Effect of Dexa on expression of the melanocortin 2 receptor” value in experiment [5] is “not a consequence of reduced or increased expression”.
Turning to `O=S(=O)(NCCNC/C=C/c1ccc(Br)cc1)c1cccc2cnccc12` [H89], the “Effect of PKA inhibitor on ACTH-stimulated respiration” value in the experiment with primary brown adipocytes (H89 50 μM, ACTH 1 μM, n = 4, Figure 2E) is “completely blocked the effect on respiration of ACTH”.
Consider `CC(C)NCC(O)c1ccc(O)c(O)c1` (stereo not drawn) [ISO, isoproterenol], for which the concentration giving a half-maximal response (EC50) (as a rule, the midpoint of the concentration-response curve) in experiment [2] (Mus musculus, Adipocyte, 0.5 h, stimulation for 30 min, n = 3, non-linear regression, Figure 2D) came out at 9.41 nM.
For `CCCCC[C@H](O)/C=C/[C@H]1[C@H](O)CC(=O)[C@@H]1C/C=C\CCCC(=O)O` [PGE2, Prostaglandin E2], the “FLUC (luciferase) activity as surrogate” value in experiment [1] is “moderate rise in FLUC activity”.
Turning to `C[C@]12C[C@H](O)[C@H]3[C@@H](CCC4=CC(=O)CC[C@@]43C)[C@@H]1CC[C@@H]2C(=O)CO` [corticosterone], the “Effect on Ucp1 mRNA and UCP1 protein in response to adrenergic stimulation and ACTH treatment” value in experiment [6] was “reduces Ucp1 mRNA and UCP1 protein”.
As to `CC(C)NCC(O)COc1cccc2ccccc12` (stereo not drawn) [propranolol], the “Effect of propranolol pre-treatment on ACTH stimulated respiration” value in the experiment with primary brown adipocytes (1 h pretreatment, 1–100 μM propranolol, ACTH 1 μM, n = 4, Figure 2B) is given as “did not attenuate ACTH stimulated respiration”. Besides, the “Effect of propranolol pre-treatment on ISO stimulated respiration” value with primary brown adipocytes (1 h pretreatment, 1–100 μM propranolol, ISO 0.5 μM, n = 4, Figure 2B) was “blocking the effect of ISO in a dose-dependent manner”.
Take “MRHFRWG [synACTH(4-10), mutant ACTH fragment, synthetic analog of ACTH(4-10) with amino acid exchange from Glu to Arg]”: the “Stimulated respiration (fold increase of basal leak), ACTH heptapeptide fragments” value with primary brown adipocytes is given as “mildly increased respiration”. The “Ucp1 mRNA expression, ACTH heptapeptide fragments” value in experiment [3] is listed as “comparable to that of the natural heptapeptide”. In addition, the “Activity on the release of FFAs compared to the natural ACTH core sequence” value with release of FFAs is “fourfold increased activity on the release of FFAs”.
“Met-Glu-His-Phe-Arg-Trp-Gly [ACTH(4-10)]”: in the experiment with primary brown adipocytes, the “Stimulated respiration (fold increase of basal leak), ACTH heptapeptide fragments” value is on record as “no impact on respiration”. In addition, in experiment [3], the “Ucp1 mRNA expression, ACTH heptapeptide fragments” value is given as “significantly increased Ucp1 mRNA expression”.
As to “PACAP: pituitary adenylate cyclase-activating peptide”, the “Stimulated respiration (UCP1-dependent uncoupled respiration) as fold increase of basal leak respiration, GsPCR ligand screen” value in the experiment with primary brown adipocytes is given as “weakest effects on cellular respiration”. In addition, the “FLUC (luciferase) activity as surrogate” value in experiment [1] is “highest FLUC activities”.
Take “PTH: parathyroid hormone, ligand of PTHR”: the “Stimulated respiration (UCP1-dependent uncoupled respiration) as fold increase of basal leak respiration, GsPCR ligand screen” value in the experiment with primary brown adipocytes is reported as “modest compared to ISO”. In addition, in experiment [1], the “FLUC (luciferase) activity as surrogate” value is “highest FLUC activities”.
For the compound “adrenomedullin: ligand for calcitonin receptor-like receptor (CALCRL)”, the “FLUC (luciferase) activity as surrogate” value in experiment [1] was “only had minor effects”.
“secretin: peptide ligand of the secretin receptor”: in the experiment with primary brown adipocytes, the “Stimulated respiration (UCP1-dependent uncoupled respiration) as fold increase of basal leak respiration, GsPCR ligand screen” value is reported as “most prominent induction of UCP1-dependant uncoupled respiration”. In addition, the “FLUC (luciferase) activity as surrogate” value in experiment [1] is reported as “highest FLUC activities”.
For thyroid hormone, the “FLUC (luciferase) activity as surrogate” value in experiment [1] is reported as “no effect on FLUC”.
Regarding “α-MSH: α-melanocyte-stimulating hormone, melanocortin”, in the experiment on primary brown adipocytes, the “Stimulated respiration (UCP1-dependent uncoupled respiration) as fold increase of basal leak respiration, GsPCR ligand screen” value is recorded as “weakest effects on cellular respiration”. The “FLUC (luciferase) activity as surrogate” value in experiment [1] is given as “moderate rise in FLUC activity”.
